This note sets out measurements from patent US6923992B2, “Active compounds of Bao-Ji-Wan for anti-diarrhea and relieving gastrointestinal symptoms” (The Chinese University of Hong Kong, priority 2001, dated 2005).

Experiment [1] deals with PGE2-induced fluid accumulation. The experiment can be described thus: PGE2-induced enteropooling assay (fluid accumulation) in rats. In kind it is in vivo, Sprague-Dawley rats. The conditions noted are these: for inhibition at 2 mg/kg: Rattus norvegicus, read-out: Inhibition of secretion. As to the method: This example illustrates the ability of BJW and its active components, magnolol, honokiol and imperatorin, to inhibit PGE2-induced fluid accumulation in rats. Sprague-Dawley rats of either sex, in groups of 8 animals, weighing between 220 and 250 g were used. A modified PGE2-induced enteropooling assay (Robert et al., Prostaglandins 11(5):809-28 (1976)) was used. The test drugs or vehicle were administrated intergastrically to rats 60 min before the administration of PGE2 (100 μg/kg, i.g.). BJW was administered (i.g. 1.6 g/kg, 2× of recommended human dosage) once daily for two days before treatment with PGE2.

The subject of experiment [2] is Cl−-secreting human colonic cell line, T84. The experiment can be described thus: Inhibition of cAMP-activated Cl− secretion across T84 cell monolayers. The class given is cell-based. The conditions noted are these: forskolin (10 μM), read-out: IC50, inhibition of forskolin-induced Cl− secretion.
Where [3] appears, read: rats, dose 2 mg/kg intergastrically 60 min before PGE2 (100 μg/kg, i.g.).

≈ marks a conversion by molar mass, not a printed value. Where two headings read alike, the source gives them in different places.

As usually defined, the inhibition is the relative decrease from the control value, in per cent. Take `CN(C)C(=O)C(CCN1CCC(O)(c2ccc(Cl)cc2)CC1)(c1ccccc1)c1ccccc1` [Loperamide, loperamide, reference compound]: the inhibition at 2 mg/kg in experiment [1] was 75%. In addition, the “Fluid accumulation ratio (FA)” value in experiment [1] (setting [3]) stood at 5.09 ± 1.40 fluid g/g intestine.
The term IC50 denotes the concentration at which inhibition is half-maximal. On to `C=CCc1ccc(O)c(-c2ccc(O)c(CC=C)c2)c1` [Honokiol, honokiol], for which, in experiment [1] (setting [3]), the inhibition at 2 mg/kg came out at 56% and the “Fluid accumulation ratio (FA)” value was determined as 7.06 ± 1.18 fluid g/g intestine. Further, in experiment [2], the half-inhibitory concentration (IC50) was 4 to 7 µg/mL (≈ 15 to 26.3 µM).
In the same order, the values of `CC(C)=CCOc1c2occc2cc2ccc(=O)oc12` [Imperatorin, imperatorin] are 39%, 8.87 ± 1.93 fluid g/g intestine and 4 to 7 µg/mL (≈ 14.8 to 25.9 µM).
For the compound `CC(C)=CCOc1c2ccoc2cc2oc(=O)ccc12` [isoimperatorin], the IC50 in experiment [2] lay in the range of 4 to 7 µg/mL (≈ 14.8 to 25.9 µM).
Consider `C=CCc1ccc(O)c(-c2cc(CC=C)ccc2O)c1` [Magnolol, magnolol], for which, in experiment [1], the inhibition at 2 mg/kg is 92%. For the same compound, the “Fluid accumulation ratio (FA)” value in experiment [1] (setting [3]) was 3.28 ± 0.32 fluid g/g intestine.
